Our source for the solubility values is US20100013377A1, “Compounds for use in Opto-Electrical Devices” (CDT OXFORD LIMITED, priority 2006, published 2010).

The conditions of the series: in all of xylene, toluene, chlorobenzene, chloroform or tetrahydrofuran. From the text:
By “solubilizing substituent” we mean a substituent which renders the triazine sufficiently soluble in organic solvents that it can be solution processed to fabricate an opto-electrical device by, for example, ink-jet printing or spin-coating. […] Organic solvents suitable for opto-electrical device fabrication include xylene, toluene, chlorobenzene, chloroform or tetrahydrofuran but preferably toluene or xylene.

The structures appear in SMILES notation.

As to `c1ccc(-c2ccc(-c3nc(-c4ccc(-c5ccccc5)cc4)nc(-c4ccc(-c5ccccc5)cc4)n3)cc2)cc1` [2,4,6-tris(biphenyl)-1,3,5-triazine], the solubility (usually how much of the substance goes into solution per volume) was less than 5 mg/mL.
